From patent publication US10711004B2 (Genentech, Inc., priority 2018, dated 2020) come the findings set out here.

Read-outs that look alike come from different tables or passages of the source.

For this assay, the target named is human TRPA1 channel (Homo sapiens (Human), UniProt O75762). The assay is described as follows: hTRPA1 CHO Ca2+ FLIPR Tetra assay, block of cinnamaldehyde induced calcium influx. The assay is classed as cell-based. Conditions: CHO cells expressing TRPA1, Hill coefficient fixed to 1.5. The method in brief: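 Calcium-dye-loaded TRPA1-expressing CHO cells in HBSS/20 mM HEPES pH 7.4, 0.02% BSA were preincubated with compound for 10 or 90 min at room temperature. Calcium influx evoked by roughly an EC50 concentration of cinnamaldehyde was then read on FLIPR Tetra; IC50 came from curve fits with a fixed Hill coefficient.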

Where [1] appears, read: read-out: hTRPA1 IC50 (10 min), compounds incubated 10 minutes at room temperature before cinnamaldehyde agonist.
[2] abbreviates: read-out: hTRPA1 IC50 (90 min), compounds incubated 90 minutes at room temperature before cinnamaldehyde agonist.

Sequence of human TRPA1 channel (O75762 whole entry): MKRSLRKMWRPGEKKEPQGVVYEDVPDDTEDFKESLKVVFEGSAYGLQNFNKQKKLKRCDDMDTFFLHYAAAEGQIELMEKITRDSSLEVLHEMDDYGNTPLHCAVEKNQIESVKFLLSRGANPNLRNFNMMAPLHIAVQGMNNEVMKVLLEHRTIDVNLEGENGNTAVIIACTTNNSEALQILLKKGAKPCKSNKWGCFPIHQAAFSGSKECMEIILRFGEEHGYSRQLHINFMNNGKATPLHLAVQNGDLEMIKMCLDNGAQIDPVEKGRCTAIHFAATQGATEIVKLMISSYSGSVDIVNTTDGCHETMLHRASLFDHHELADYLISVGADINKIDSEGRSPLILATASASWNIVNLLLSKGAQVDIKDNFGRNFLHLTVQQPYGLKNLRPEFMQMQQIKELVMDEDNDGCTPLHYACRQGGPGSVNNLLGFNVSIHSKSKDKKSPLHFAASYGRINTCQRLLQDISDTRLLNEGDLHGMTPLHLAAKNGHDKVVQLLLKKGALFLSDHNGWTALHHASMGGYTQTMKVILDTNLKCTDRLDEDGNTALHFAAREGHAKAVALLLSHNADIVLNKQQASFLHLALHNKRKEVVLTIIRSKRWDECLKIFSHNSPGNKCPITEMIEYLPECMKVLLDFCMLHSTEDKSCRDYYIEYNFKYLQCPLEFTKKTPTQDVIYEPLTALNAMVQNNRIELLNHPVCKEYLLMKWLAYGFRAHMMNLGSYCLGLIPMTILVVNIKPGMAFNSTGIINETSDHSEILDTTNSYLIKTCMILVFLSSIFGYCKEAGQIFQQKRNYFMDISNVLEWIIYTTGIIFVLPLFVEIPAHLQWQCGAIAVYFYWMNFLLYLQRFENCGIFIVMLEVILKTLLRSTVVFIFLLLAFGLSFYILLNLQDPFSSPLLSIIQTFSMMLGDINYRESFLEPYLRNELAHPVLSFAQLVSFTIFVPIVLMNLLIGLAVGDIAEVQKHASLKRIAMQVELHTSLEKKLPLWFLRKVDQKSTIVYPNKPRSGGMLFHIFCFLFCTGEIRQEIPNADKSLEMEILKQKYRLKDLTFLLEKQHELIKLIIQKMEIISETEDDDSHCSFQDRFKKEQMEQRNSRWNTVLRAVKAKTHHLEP

`Cn1cnc2ncn(Cc3nc([C@H]4[C@@H]5CN(c6cccc(-c7ccncc7)c6)C[C@@H]54)no3)c(=O)c21` [Example Compound 201, 7-methyl-1-((3-((1R,5S,6r)-3-(3-(pyridin-4-yl)phenyl)-3-azabicyclo[3.1.0]hexan-6-yl)-1,2,4-oxadiazol-5-yl)methyl)-1,7-dihydro-6H-purin-6-one]: the IC50 came to 67 nM under setting [1] and 66 nM under setting [2].
`Cc1ccnc2ncn(Cc3nc([C@H]4C[C@](F)(c5ccc(Cl)cc5)C4)no3)c(=O)c12` [Example Compound 38, 3-((3-((1s,3s)-3-(4-chlorophenyl)-3-fluorocyclobutyl)-1,2,4-oxadiazol-5-yl)methyl)-5-methylpyrido[2,3-d]pyrimidin-4(3H)-one]: under setting [1], the IC50 turned out to be 28.9 nM.
For `Cn1cnc2ncn(Cc3nc([C@@H]4CC[C@@H](c5ccc(F)cc5)C4)no3)c(=O)c21` [Example Compound 172, 1-((3-((1R,3R)-3-(4-fluorophenyl)cyclopentyl)-1,2,4-oxadiazol-5-yl)methyl)-7-methyl-1,7-dihydro-6H-purin-6-one], the IC50 is, setting by setting: under setting [1], 26.6 nM; under setting [2], 18 nM.
As for `Cn1cnc2ncn(Cc3nc([C@@H]4[C@H]5C=C(c6ccc(Cl)cn6)C[C@H]54)no3)c(=O)c21` [Example Compound 123, 1-((3-((1R,5R,6S)-3-(5-chloropyridin-2-yl)bicyclo[3.1.0]hex-2-en-6-yl)-1,2,4-oxadiazol-5-yl)methyl)-7-methyl-1,7-dihydro-6H-purin-6-one], the IC50 by setting is: under setting [1], 296 nM; under setting [2], 360 nM.
`Cc1ccnc2ncn(Cc3nc([C@H]4C[C@](O)(c5ccc(Cl)cc5)C4)no3)c(=O)c12` [Example Compound 10, 3-((3-((1s,3s)-3-(4-chlorophenyl)-3-hydroxycyclobutyl)-1,2,4-oxadiazol-5-yl)methyl)-5-methylpyrido[2,3-d]pyrimidin-4(3H)-one]: the IC50 under setting [1] was 141 nM.
Turning to `CN(C)C(=O)CNc1nc2ncn(Cc3nc([C@H]4[C@@H]5C=C(c6ccccc6)C[C@@H]54)no3)c(=O)c2n1C` [Example Compound 244, N,N-dimethyl-2-[[7-methyl-6-oxo-1-[[3-[(1S,5S,6R)-3-phenyl-6-bicyclo[3.1.0]hex-2-enyl]-1,2,4-oxadiazol-5-yl]methyl]purin-8-yl]amino]acetamide], the IC50 is, setting by setting: under setting [1], 68.7 nM; under setting [2], 26 nM.
For the compound `Cn1cnc2ncn(Cc3nc([C@H]4[C@@H]5CN(c6ccc(F)c(Cl)c6)C[C@@H]54)no3)c(=O)c21`, the IC50 under setting [1] worked out at 9.78 nM.
Regarding `O=c1c2cccnc2ncn1Cc1nc([C@H]2C[C@](F)(c3cccc(F)c3)C2)no1` [Example Compound 197, 3-((3-((1s,3s)-3-fluoro-3-(3-fluorophenyl)cyclobutyl)-1,2,4-oxadiazol-5-yl)methyl)pyrido[2,3-d]pyrimidin-4(3H)-one], the IC50 under setting [1] stood at 66.9 nM.
Take `Cc1ccnc2ncn(Cc3nc([C@@H]4[C@H]5C=C(c6ccccc6)C[C@H]54)no3)c(=O)c12` [Example Compound 227, 5-methyl-3-((3-((1R,5R,6S)-3-phenylbicyclo[3.1.0]hex-2-en-6-yl)-1,2,4-oxadiazol-5-yl)methyl)pyrido[2,3-d]pyrimidin-4(3H)-one]: the IC50 under setting [1] was 14 nM.
In the case of `Cn1cnc2ncn(Cc3nc([C@H]4[C@@H]5C=C(c6ccc7ccncc7c6)C[C@@H]54)no3)c(=O)c21` [Example Compound 135, 1-((3-((1S,5S,6R)-3-(isoquinolin-7-yl)bicyclo[3.1.0]hex-2-en-6-yl)-1,2,4-oxadiazol-5-yl)methyl)-7-methyl-1,7-dihydro-6H-purin-6-one], the IC50 is, setting by setting: under setting [1], 58.7 nM; under setting [2], 48 nM.
Consider `Cn1cnc2ncn(Cc3nc([C@H]4[C@@H]5CN(c6ccccc6F)C[C@@H]54)no3)c(=O)c21` [Example Compound 97, 1-((3-((1R,5S,6r)-3-(2-fluorophenyl)-3-azabicyclo[3.1.0]hexan-6-yl)-1,2,4-oxadiazol-5-yl)methyl)-7-methyl-1,7-dihydro-6H-purin-6-one], for which the IC50 came to 48.1 nM under setting [1] and 19 nM under setting [2].
